Measured values reported in article PMC4081560 (PLoS ONE, 2014).

How the values were obtained:
[1] = tested on: K/2785 virus (A/Korea/2785/2009); type: cell-based, 2009 pandemic H1N1 oseltamivir-resistant variant
[2] = biological target: K/2785 virus (A/Korea/2785/2009) neuraminidase (NA H275Y) (Influenza A virus, UniProt C5MQP8, H275Y); type: biochemical, 2009 pandemic H1N1 oseltamivir-resistant variant

Compound | EC50 [1] [µM] | IC50 [2] [µM] | higher concentration needed compared with K/09 virus [2]
NC(=O)c1nc(F)cnc1O [Favipiravir, 6-fluoro-3-hydroxy-2-pyrazinecarboxamide] | 10.8 |  | 
CCC(CC)[C@H](NC(C)=O)[C@@H]1[C@H](O)[C@@H](C(=O)O)C[C@H]1N=C(N)N [Peramivir] |  | 0.0298 | more than 20 fold
